# Experimental data: patent publication US20100272853A1, “Method of Increasing the Milk and/or Meat Quantity of Silage-Fed Animals” (BASF SE, priority 2007, published 2010)
# Key:
# Type in all cases: in vivo
# corn hybrids = assay: Field trial Wisconsin 2008 with eight corn hybrids: calculated milk production per ton of harvested biomass; details: for Calculated milk production, Milk (kg/t): Unity, Wis., 2008
# Procedure: (§1) Field trials were conducted as strip trials in farm fields in 2006 and 2008. A part of the field was treated with pyraclostrobin applied as Headline® whereas another part was left untreated. Headline® was applied at tassel emergence with 0.44 L/ha (110 g pyraclostrobin per ha) by aerial or ground application with a high clearance sprayer. Total spray volume was 93.5 to 187 L/ha for ground application and 18.7 to 46.7 L/ha for aerial application, respectively. Water was used as a carrier to prepare the spray mixture.
# (§2) Trials were harvested using a commercial forage harvester when the corn crop reached a dry matter content of about 30 to 40%. The treated and untreated area of the field was harvested separately to gain total biomass yield (ton/acre). Subsequently, the harvested plant material was used for producing silage.
# (§3) Forage samples from the harvested plants were taken from both the treated and untreated areas of the field. Samples were taken from the harvested material in the forage wagon following chopping with the commercial harvester. Multiple forage samples were taken for each of both treatments manually during harvesting in each of the trials, mixed in a larger container, and a subsample of 1.3 to 2.25 kg was taken. The subsamples were placed in plastic bags, sealed, cooled, and shipped immediately to Agsource Soil and Forage Laboratory, 106 North Cecil Street, Bonduel Wis. 54107, USA for Near Infrared Reflectance Spectroscopy (NIRS) analysis.
# (§4) Typically, samples for NIRS analysis are first dried at 55 to 65° C. for 24 h to 48 h prior to analysis. A representative subsample thereof is then dried at 105° C. for another 12 h to 24 h to evaluate the dry matter content of the samples. Subsequently, the remaining sample is grinded and homogenized and again a representative subsample is used for the NIRS analysis. The NIRS analysis procedure uses a commercially available calibration to estimate the values for each quality parameter based on the spectral reflectance information gained. The calibrations are based on the near infra red reflectance spectra of samples with known quality data. The comparison of the spectra of the samples with unknown quality data with the spectra of the known samples allows calculating estimates for each quality parameter of interest.
# (§5) NIRS analysis provided dry matter, crude protein, Acid Detergent Fibre (ADF), Neutral Detergent Fibre (NDF), and starch data. Calculations were included for moisture, adjusted crude protein, Total Digestible Nutrients (TDN), Net Energy for Lactation (NEL), Net Energy for Gain (NEG) and protein solubility.
# (§6) The information was then entered into the MILK 2006 University of Wisconsin Corn Silage evaluation system. Calculations of the milk production, energy content and digestibility per ton of corn biomass were carried out using a calculation method described in:
# (§7) a) Schwab, E. C., and R. D. Shaver. 2001: “Evaluation of corn silage nutritive value using MILK2000” (pages 21-24) in Proc. of 25th Forage Production and Use Symposium. WI Forage Council Annual Mtg. Eau Claire, Wis. b) Schwab, E. C., R. D. Shaver. J. G. Lauer, and J. G. Coors. 2003: “Estimating silage energy value and milk yield to rank corn hybrids”. J. Anim. Feed Sci. Technol. 109: 1-18. as well as in c) Undersander, D. J., W. T. Howard, and R. D. Shaver. 1993: “Milk per acre spreadsheet for combining yield and quality into a single term”. J. Prod. Ag. 6: 231 235.
# Eight different corn hybrid varieties were tested in a field trial in Unity, Wis., in 2008. Trial setup, application, harvesting, sampling and quality analysis including calculation of milk production per ton followed the procedure described before. Each hybrid was either treated with pyraclostrobin as described before or untreated. The quality data was converted into milk production per ton of harvested biomass for each hybrid as described above.
# corn [1] = assay: Strip field trials Wisconsin 2006: corn forage quality by NIRS and MILK 2006 calculated milk production
# Procedure: as §1, §2, §3, §4, §5, §6, §7
# In 2006 a total of 7 strip trials were conducted in Manitowoc County, Wis. Trial setup, treatments, application, harvesting, sampling and quality analysis including calculation of milk production per ton and per acre followed the procedure described before.
# corn [2] = assay: Strip field trials Maryland 2006: corn forage quality by NIRS and MILK 2006 calculated milk production
# Procedure: as §1, §2, §3, §4, §5, §6, §7
# In 2006 a total of 16 strip trials were conducted in Queen Ann County, MD. Trial setup, treatments, application, harvesting, sampling and quality analysis including calculation of milk production per ton and per acre followed the procedure described before.
# corn [3] = assay: Strip field trials New York 2006: corn forage quality by NIRS and MILK 2006 calculated milk production
# Procedure: as §1, §2, §3, §4, §5, §6, §7
# In 2006 a total of 2 strip trials were conducted in Waterloo, N.Y. Trial setup, treatments, application, harvesting, sampling and quality analysis including calculation of milk production per ton and per acre followed the procedure described before.
# [4] = Example 4.5, hybrid N27B CBLLRW
# [5] = Wis. 2006, vs untreated part of field
# [6] = average of 7 strip trials, Wis. 2006, 110 g pyraclostrobin per ha at tassel emergence
# [7] = MD 2006, vs untreated part of field
# [8] = average of 16 strip trials, MD 2006, 110 g pyraclostrobin per ha at tassel emergence
# [9] = N.Y. 2006, vs untreated part of field
# [10] = average of 2 strip trials, N.Y. 2006, 110 g pyraclostrobin per ha at tassel emergence
compound,measurement,setting,value
"COC(=O)N(OC)c1ccccc1COc1ccn(-c2ccc(Cl)cc2)n1 [Pyraclostrobin, pyraclostrobin]","Milk, % Difference to Untreated","corn hybrids; Example 4.1, hybrid DS93VT3",+9.6%
same,"Calculated milk production, Milk (kg/t)","corn hybrids; Example 4.1, hybrid DS93VT3",1608 kg/t
same,"Milk, % Difference to Untreated","corn hybrids; Example 4.2, hybrid S4900VT",+17.5%
same,"Calculated milk production, Milk (kg/t)","corn hybrids; Example 4.2, hybrid S4900VT",1581 kg/t
same,"Milk, % Difference to Untreated","corn hybrids; Example 4.3, hybrid 3114VT3",+7.1%
same,"Calculated milk production, Milk (kg/t)","corn hybrids; Example 4.3, hybrid 3114VT3",1648 kg/t
same,"Milk, % Difference to Untreated","corn hybrids; Example 4.4, hybrid 491VT3",+10.9%
same,"Calculated milk production, Milk (kg/t)","corn hybrids; Example 4.4, hybrid 491VT3",1643 kg/t
same,"Milk, % Difference to Untreated",corn hybrids; [4],+22.0%
same,"Calculated milk production, Milk (kg/t)",corn hybrids; [4],1549 kg/t
same,"Milk, % Difference to Untreated","corn hybrids; Example 4.6, hybrid DS93VT3",+20.9%
same,"Calculated milk production, Milk (kg/t)","corn hybrids; Example 4.6, hybrid DS93VT3",1600 kg/t
same,"Milk, % Difference to Untreated","corn hybrids; Example 4.7, hybrid DKC48-37",+8.8%
same,"Calculated milk production, Milk (kg/t)","corn hybrids; Example 4.7, hybrid DKC48-37",1684 kg/t
same,"Milk, % Difference to Untreated","corn hybrids; Example 4.8, hybrid DS93VT3",+8.3%
same,"Calculated milk production, Milk (kg/t)","corn hybrids; Example 4.8, hybrid DS93VT3",1632 kg/t
same,"milk production per ton of harvested corn biomass, result in words",corn hybrids; across the eight tested different corn hybrids,improves the milk production per ton of harvested corn biomass
same,"% CP, % Difference to Untreated",corn [1]; [5],+4.2%
same,"% NDFD, % Difference to Untreated",corn [1]; [5],+13.2%
same,"% Starch, % Difference to Untreated",corn [1]; [5],+13.7%
same,"Milk (kg/t), % Difference to Untreated",corn [1]; [5],+14.0%
same,"% ADF, % Difference to Untreated","corn [1]; Wis. 2006, vs untreated part of field, decrease means more digestibility",−16.2%
same,"% NDF, % Difference to Untreated","corn [1]; Wis. 2006, vs untreated part of field, decrease means more energy content",−13.4%
same,crude protein content (% CP),"corn [1]; average of 7 strip trials, Manitowoc County, Wis., 2006, 110 g pyraclostrobin per ha at tassel emergence",7.5%
same,acid detergent fiber content (% ADF),corn [1]; [6],22.2%
same,in vitro 48-hour digestible NDF expressed as percent of NDF (% NDFD),corn [1]; [6],67.6%
same,neutral detergent fiber content (% NDF),corn [1]; [6],39.5%
same,starch content (% Starch),corn [1]; [6],37.4%
same,calculated value for milk produced per ton of silage (Milk (kg/t)),"corn [1]; average of 7 strip trials, Wis. 2006, 110 g pyraclostrobin per ha, MILK 2006 calculation",1815 kg/t
same,"% CP, % Difference to Untreated",corn [2]; [7],+6.0%
same,"% NDFD, % Difference to Untreated",corn [2]; [7],+3.9%
same,"% Starch, % Difference to Untreated",corn [2]; [7],+10.2%
same,"Milk (kg/t), % Difference to Untreated",corn [2]; [7],+5.9%
same,"TDN % of DM, % Difference to Untreated",corn [2]; [7],+3.6%
same,"% NDF, % Difference to Untreated","corn [2]; MD 2006, vs untreated part of field, decrease means more energy content",−4.8%
same,in vitro 48-hour digestible NDF expressed as percent of NDF (% NDFD),corn [2]; [8],60.6%
same,neutral detergent fiber content (% NDF),corn [2]; [8],45.9%
same,starch content (% Starch),corn [2]; [8],28.2%
same,total digestible nutrients as percent of dry matter (TDN % of DM),corn [2]; [8],70.0%
same,calculated value for milk produced per ton of silage (Milk (kg/t)),"corn [2]; average of 16 strip trials, MD 2006, 110 g pyraclostrobin per ha, MILK 2006 calculation",1730 kg/t
same,crude protein content (% CP),"corn [2]; average of 16 strip trials, Queen Ann County, MD, 2006, Headline 0.44 L/ha (110 g pyraclostrobin per ha) at tassel emergence",7.1%
same,"% CP, % Difference to Untreated",corn [3]; [9],+6.0%
same,"% Dry Matter, % Difference to Untreated",corn [3]; [9],−2.2%
same,"% NDFD, % Difference to Untreated",corn [3]; [9],+19.3%
same,"% Starch, % Difference to Untreated",corn [3]; [9],+15.3%
same,"Milk (kg/t), % Difference to Untreated",corn [3]; [9],+21.2%
same,"% NDF, % Difference to Untreated","corn [3]; N.Y. 2006, vs untreated part of field, decrease means more energy content",−16.8%
same,crude protein content (% CP),corn [3]; [10],6.52%
same,in vitro 48-hour digestible NDF expressed as percent of NDF (% NDFD),corn [3]; [10],51.30%
same,neutral detergent fiber content (% NDF),corn [3]; [10],38.18%
same,starch content (% Starch),corn [3]; [10],42.42%
same,calculated value for milk produced per ton of silage (Milk (kg/t)),"corn [3]; average of 2 strip trials, N.Y. 2006, 110 g pyraclostrobin per ha, MILK 2006 calculation",1653 kg/t
same,dry matter content (% Dry Matter),"corn [3]; average of 2 strip trials, Waterloo, N.Y., 2006, 110 g pyraclostrobin per ha at tassel emergence",36.45%
